# Laboratory results reported in patent publication US10793563B2, “GCN2 inhibitors and uses thereof” (Merck Patent GmbH, priority 2018, dated 2020).
# Assays:
# [1] = target: GCN2 kinase (Homo sapiens (Human), UniProt Q9P2K8); experiment: GCN2 Enzyme Inhibition Assay (Transcreener ADP2 fluorescence polarization); type: biochemical; conditions: 280 μM ATP, 200 μM (RS)7 peptide, 4 nM GCN2, 25° C.; for Ki: Ki(app)
# In short: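 Transcreener ADP2 fluorescence polarization detection of ADP from 4 nM GCN2 with (RS)7 substrate in 25 mM Tris-HCl pH 7.5, 50 mM NaCl, 10 mM MgCl2, 1 mM DTT. Compound pre-incubated with enzyme 10 min at 25 °C; reaction started by ATP, run 1 h at 25 °C. IC50 and Ki(app) by tight-binding fit.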
# [2] = target: intracellular GCN2 (phosphorylation of the GCN2 substrate eIF2α) (Homo sapiens (Human), UniProt Q9P2K8); experiment: GCN2 Cellular Inhibition Assay (AlphaScreen SureFire P-eIF2α Ser51, borrelidin-treated U2OS cells); type: cell-based; conditions: 10 μM borrelidin, 1 h, phosphorylated eIF2α Ser51, read-out: GCN2 Biomarker (IC50)
# Chain of intracellular GCN2 (phosphorylation of the GCN2 substrate eIF2α) (Q9P2K8 whole entry): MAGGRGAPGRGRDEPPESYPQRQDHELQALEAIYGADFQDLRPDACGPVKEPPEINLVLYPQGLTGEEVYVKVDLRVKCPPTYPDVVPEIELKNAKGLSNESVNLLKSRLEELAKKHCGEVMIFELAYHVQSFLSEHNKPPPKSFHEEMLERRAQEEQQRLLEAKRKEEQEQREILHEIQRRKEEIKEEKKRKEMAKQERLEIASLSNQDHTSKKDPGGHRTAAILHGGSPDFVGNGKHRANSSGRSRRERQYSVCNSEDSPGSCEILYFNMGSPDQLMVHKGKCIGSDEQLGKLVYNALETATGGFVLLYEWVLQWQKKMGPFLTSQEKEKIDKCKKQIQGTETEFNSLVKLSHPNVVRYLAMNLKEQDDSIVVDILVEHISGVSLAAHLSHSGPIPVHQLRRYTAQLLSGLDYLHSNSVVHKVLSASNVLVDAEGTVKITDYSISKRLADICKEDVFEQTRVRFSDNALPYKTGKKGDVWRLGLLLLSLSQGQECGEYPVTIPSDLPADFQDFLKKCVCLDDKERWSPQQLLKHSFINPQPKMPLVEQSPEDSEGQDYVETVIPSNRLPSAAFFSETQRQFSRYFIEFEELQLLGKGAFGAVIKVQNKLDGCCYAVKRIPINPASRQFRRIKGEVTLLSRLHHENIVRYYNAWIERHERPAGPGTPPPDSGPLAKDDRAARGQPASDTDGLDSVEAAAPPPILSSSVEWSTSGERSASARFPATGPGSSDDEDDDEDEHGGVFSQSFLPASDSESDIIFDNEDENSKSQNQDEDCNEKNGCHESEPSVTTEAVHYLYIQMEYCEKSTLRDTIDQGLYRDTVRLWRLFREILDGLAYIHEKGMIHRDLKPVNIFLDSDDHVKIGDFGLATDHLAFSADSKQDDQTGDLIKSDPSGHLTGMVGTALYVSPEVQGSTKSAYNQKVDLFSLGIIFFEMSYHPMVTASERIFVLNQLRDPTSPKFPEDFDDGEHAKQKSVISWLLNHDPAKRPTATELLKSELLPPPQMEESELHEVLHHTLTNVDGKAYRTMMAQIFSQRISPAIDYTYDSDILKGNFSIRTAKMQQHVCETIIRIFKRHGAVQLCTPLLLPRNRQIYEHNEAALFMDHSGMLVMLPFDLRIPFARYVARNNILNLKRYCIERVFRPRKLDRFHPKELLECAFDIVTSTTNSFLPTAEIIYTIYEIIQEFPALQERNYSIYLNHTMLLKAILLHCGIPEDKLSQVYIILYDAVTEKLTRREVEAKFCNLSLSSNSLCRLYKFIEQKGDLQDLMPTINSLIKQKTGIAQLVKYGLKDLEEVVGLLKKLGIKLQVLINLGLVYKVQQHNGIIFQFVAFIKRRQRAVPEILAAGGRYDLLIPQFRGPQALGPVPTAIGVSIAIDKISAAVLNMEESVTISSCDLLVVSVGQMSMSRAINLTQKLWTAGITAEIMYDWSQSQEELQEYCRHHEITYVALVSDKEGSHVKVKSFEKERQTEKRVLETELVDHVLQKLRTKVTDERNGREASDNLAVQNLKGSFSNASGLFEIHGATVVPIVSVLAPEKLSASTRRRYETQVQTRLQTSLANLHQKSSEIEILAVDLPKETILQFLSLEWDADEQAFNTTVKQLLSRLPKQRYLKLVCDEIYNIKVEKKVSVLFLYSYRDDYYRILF
# In short: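 U2OS cells adhered overnight, then given compound (top 40 μM, 4-fold serial dilutions) plus 10 μM borrelidin for 1 h at 37 °C. Lysates assayed for eIF2α phospho-Ser51 by AlphaScreen SureFire; % inhibition versus borrelidin-only wells.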
# Chain of GCN2 kinase (Q9P2K8 whole entry): as above
IC50 [1] [nM],IC50 [2] [nM],Ki [1] [nM],SMILES
100 to 1000,500 to 5000,,Cc1[nH]ncc1[C@@H]1[C@H](C)N(c2ccnc(-c3cnc4ccc(C(F)(F)F)cn34)n2)CCN1C1COC1 [I-365]
10 to 100,500 to 5000,,"C[C@H](NS(C)(=O)=O)[C@@H]1CN(c2ccnc(-c3cnc4ccc(C(F)(F)F)cn34)n2)CCO1 [I-407, N—((S)-1-((S)-4-(2-(6-(trifluoromethyl)imidazo[1,2-a]pyridin-3-yl)pyrimidin-4-yl)morpholin-2-yl)ethyl)methanesulfonamide]"
10 to 100,> 5000,,"CC(C)(C(=O)O)C1CCCN(c2ccnc(-c3cnc4ccc(Cl)cn34)n2)C1 (stereo not shown) [I-284, 2-(1-(2-(6-chloroimidazo[1,2-a]pyridin-3-yl)pyrimidin-4-yl)piperidin-3-yl)-2-methylpropanoic acid]"
100 to 1000,500 to 5000,,"CC(C)n1cc(C(=O)N2CCN(c3ccnc(-c4cnc5ccc(C(F)(F)F)cn45)n3)CC2c2cn[nH]c2)cn1 (stereo not shown) [I-391, (2-(1H-pyrazol-4-yl)-4-(2-(6-(trifluoromethyl)imidazo[1,2-a]pyridin-3-yl)pyrimidin-4-yl)piperazin-1-yl)(1-isopropyl-1H-pyrazol-4-yl)methanone]"
,500 to 5000,10 to 100,"CS(=O)(=O)NC[C@@H]1CN(c2nsc(-c3cnc4ccc(C(F)(F)F)cn34)n2)CCO1 [I-109, (S)—N-((4-(5-(6-(trifluoromethyl)imidazo[1,2-a]pyridin-3-yl)-1,2,4-thiadiazol-3-yl)morpholin-2-yl)methyl)methanesulfonamide]"
10 to 100,< 500,,"FC(F)(F)c1ccc2ncc(-c3nccc(N4CCN(C5CC6(COC6)C5)[C@@H](c5cn[nH]c5)C4)n3)n2c1 [I-502, (S)-3-(4-(3-(1H-pyrazol-4-yl)-4-(2-oxaspiro[3.3]heptan-6-yl)piperazin-1-yl)pyrimidin-2-yl)-6-(trifluoromethyl)imidazo[1,2-a]pyridine]"
,500 to 5000,10 to 100,"CS(=N)(=O)C[C@H]1CCCN(c2ccnc(-c3cnc4ccc(C(F)(F)F)cn34)n2)C1 (stereo partly shown) [I-4, 3-(4-(3-((S-Methylsulfonimidoyl)methyl)piperidin-1-yl)pyrimidin-2-yl)-6-(trifluoromethyl)imidazo[1,2-a]pyridine]"
10 to 100,500 to 5000,,"CC(O)C(=O)N1CCN(c2ccnc(-c3cnc4ccc(C(F)(F)F)cn34)n2)CC1c1cn[nH]c1 (stereo not shown) [I-420, 1-(2-(1H-pyrazol-4-yl)-4-(2-(6-(trifluoromethyl)imidazo[1,2-a]pyridin-3-yl)pyrimidin-4-yl)piperazin-1-yl)-2-hydroxypropan-1-one]"
10 to 100,< 500,,"C[C@@H]1CN(c2nccc(-c3cnc4ccc(C(F)(F)F)cn34)n2)[C@H](C)C(c2cn[nH]c2)N1 (stereo partly drawn) [I-171, 3-(2-((2R,5R)-2,5-dimethyl-3-(1H-pyrazol-4-yl)piperazin-1-yl)pyrimidin-4-yl)-6-(trifluoromethyl)imidazo[1,2-a]pyridine]"
10 to 100,< 500,,"C[C@@H]1[C@@H](CNS(C)(=O)=O)N(C2CC2)[C@H](C)CN1c1ccnc(-c2cnc3ccc(C(F)(F)F)cn23)n1 (stereo in doubt) [I-493, N-(((2R,3R,6R)-1-cyclopropyl-3,6-dimethyl-4-(2-(6-(trifluoromethyl)imidazo[1,2-a]pyridin-3-yl)pyrimidin-4-yl)piperazin-2-yl)methyl)methanesulfonamide]"
10 to 100,500 to 5000,,"O=C(C1CC1)N1CCN(c2ccnc(-c3cnc4ccc(C(F)(F)F)cn34)n2)CC1c1cn[nH]c1 (stereo not shown) [I-397, (2-(1H-pyrazol-4-yl)-4-(2-(6-(trifluoromethyl)imidazo[1,2-a]pyridin-3-yl)pyrimidin-4-yl)piperazin-1-yl)(cyclopropyl)methanone]"
10 to 100,< 500,,"C[C@H]1[C@@H](CNS(C)(=O)=O)N(C2CC2)[C@@H](C)CN1c1ccnc(-c2cnc3ccc(C(F)(F)F)cn23)n1 (stereo in doubt) [I-491, N-(((2R,3 S,6S)-1-cyclopropyl-3,6-dimethyl-4-(2-(6-(trifluoromethyl)imidazo[1,2-a]pyridin-3-yl)pyrimidin-4-yl)piperazin-2-yl)methyl)methanesulfonamide]"
10 to 100,500 to 5000,,"O[C@@H]1C[C@H](O)CN(c2ccnc(-c3cnc4ccc(C(F)(F)F)cn34)n2)C1 [I-238, (3R,5S)-1-(2-(6-(trifluoromethyl)imidazo[1,2-a]pyridin-3-yl)pyrimidin-4-yl)piperidine-3,5-diol]"
10 to 100,< 500,,"Cc1n[nH]cc1C1CC(F)CN(c2ccnc(-c3cnc4ccc(C(F)(F)F)cn34)n2)C1 (stereo not shown) [I-357, 3-(4-(3-fluoro-5-(3-methyl-1H-pyrazol-4-yl)piperidin-1-yl)pyrimidin-2-yl)-6-(trifluoromethyl)imidazo[1,2-a]pyridine]"
10 to 100,500 to 5000,,"Cc1n[nH]nc1[C@H]1C[C@@H](C)CN(c2ccnc(-c3cnc4ccc(C(F)(F)F)cn34)n2)C1 [I-408, 3-(4-((3R,5S)-3-methyl-5-(5-methyl-2H-1,2,3-triazol-4-yl)piperidin-1-yl)pyrimidin-2-yl)-6-(trifluoromethyl)imidazo[1,2-a]pyridine]"
10 to 100,500 to 5000,,"C[C@H](NS(C)(=O)=O)[C@H]1CN(c2ccnc(-c3cnc4ccc(C(F)(F)F)cn34)n2)CCO1 (stereo in doubt) [I-405, N—((S)-1-((R)-4-(2-(6-(trifluoromethyl)imidazo[1,2-a]pyridin-3-yl)pyrimidin-4-yl)morpholin-2-yl)ethyl)methanesulfonamide]"

# Second part, the compound before the results:
SMILES,IC50 [1] [nM],IC50 [2] [nM],Ki [1] [nM]
"Cc1cnc(N2C[C@@H](c3cn[nH]c3C)O[C@@H](C)C2)nc1-c1cnc2ccc(Cl)cn12 [I-203, (2S,6R)-4-(4-(6-chloroimidazo[1,2-a]pyridin-3-yl)-5-methylpyrimidin-2-yl)-2-methyl-6-(5-methyl-1H-pyrazol-4-yl)morpholine]",10 to 100,500 to 5000,
"O=C(O)CC1CN(c2ccnc(-c3cnc4ccc(Cl)cn34)n2)CCO1 (stereo not shown) [I-298, 2-(4-(2-(6-chloroimidazo[1,2-a]pyridin-3-yl)pyrimidin-4-yl)morpholin-2-yl)acetic acid]",100 to 1000,> 5000,
"NC(=O)[C@H]1C[C@H](O)CN(c2nccc(-c3cnc4ccc(Cl)cn34)n2)C1 [I-316, (3 S,5S)-1-(4-(6-chloroimidazo[1,2-a]pyridin-3-yl)pyrimidin-2-yl)-5-hydroxypiperidine-3-carboxamide]",< 10,< 500,
"FC(F)c1ccc2ncc(-c3nccc(N4CCOC(c5cn[nH]c5)C4)n3)n2c1 (stereo not shown) [I-15, 4-[2-[6-(Difluoromethyl)imidazo[1,2-a]pyridin-3-yl]pyrimidin-4-yl]-2-(1H-pyrazol-4-yl)morpholine]",,< 500,< 10
"Cc1cnc(N2C[C@@H](C)C[C@@H](c3cn[nH]c3)C2)nc1-c1cnc2ccc(Cl)cn12 [I-186, 6-chloro-3-(5-methyl-2-((3S,5S)-3-methyl-5-(1H-pyrazol-4-yl)piperidin-1-yl)pyrimidin-4-yl)imidazo[1,2-a]pyridine]",< 10,< 500,
"CC(C)n1cc(C2(O)CCCN(c3ccnc(-c4cnc5ccc(Cl)cn45)n3)C2)nn1 (stereo not shown) [I-76, 1-[2-(6-Chloro-imidazo[1,2-a]pyridin-3-yl)-pyrimidin-4-yl]-3-(1-isopropyl-1H-[1,2,3]triazol-4-yl)-piperidin-3-ol]",,> 5000,100 to 1000
"Clc1ccc2ncc(-c3nccc(N4CCC(c5cn[nH]c5)C4)n3)n2c1 (stereo not shown) [I-27, 6-Chloro-3-[4-[3-(1H-pyrazol-4-yl)pyrrolidin-1-yl]pyrimidin-2-yl]imidazo[1,2-a]pyridine]",,< 500,< 10
"NC(=O)[C@H]1CCCN(c2ccnc(-c3cnc4cc(F)c(Cl)cn34)n2)C1 [I-48, (3S)-1-[2-(6-Chloro-7-fluoro-imidazo[1,2-a]pyridin-3-yl)pyrimidin-4-yl]piperidine-3-carboxamide]",,< 500,< 10
"CC(C)(C)OC(=O)N1CC2(CCCN(c3ccnc(-c4cnc5ccc(Cl)cn45)n3)C2)C1 [I-285, tert-butyl 6-(2-(6-chloroimidazo[1,2-a]pyridin-3-yl)pyrimidin-4-yl)-2,6-diazaspiro[3.5]nonane-2-carboxylate]",100 to 1000,500 to 5000,
"C[C@@H]1C[C@H](N=S(C)(C)=O)CN(c2ccnc(-c3cnc4cc(F)c(Br)cn34)n2)C1 [I-317, (((3 S,5R)-1-(2-(6-bromo-7-fluoroimidazo[1,2-a]pyridin-3-yl)pyrimidin-4-yl)-5-methylpiperidin-3-yl)imino)dimethyl-λ6-sulfanone]",10 to 100,500 to 5000,
"CS(=O)(=O)NC[C@@H]1CN(c2cncc(-c3cnc4ccc(Cl)cn34)n2)CCO1 [I-113, (S)—N-((4-(6-(6-chloroimidazo[1,2-a]pyridin-3-yl)pyrazin-2-yl)morpholin-2-yl)methyl)methanesulfonamide]",,500 to 5000,< 10
"CC(=O)N1CCN(c2cccc(-c3cnc4ccc(C(F)(F)F)cn34)n2)CC1 [I-11, 1-[4-[6-[6-(Trifluoromethyl)imidazo[1,2-a]pyridin-3-yl]-2-pyridyl]piperazin-1-yl]ethanone]",,> 5000,10 to 100
"NC(=O)[C@H]1CCCN(c2nccc(-c3cnc4ccc(Cl)cn34)n2)C1 [I-183, (S)-1-(4-(6-chloroimidazo[1,2-a]pyridin-3-yl)pyrimidin-2-yl)piperidine-3-carboxamide]",10 to 100,< 500,
